Source: ChEMBL document CHEMBL1201861, “Genomics of Drug Sensitity in Cancer screening data, Wellcome Trust Sanger Institute”

Experiments:
Assay type in all cases: functional, cell-based
COR-L279 = experiment: SANGER: Inhibition of human COR-L279 cell growth in a cell viability assay.
DG-75 = experiment: cells; details: Homo sapiens;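 further: growth inhibition of DG-75 cells, read out with a cell viability assay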
Description: SANGER: Inhibition of human DG-75 cell growth in a cell viability assay.

GDM-1 = experiment: cells; details: Homo sapiens;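 further: cell viability readout used to measure growth inhibition of human GDM-1 cells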
Description: SANGER: Inhibition of human GDM-1 cell growth in a cell viability assay.

HCC2157 = experiment: cells; details: Homo sapiens;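 further: growth inhibition of the cancer cell line, read out as cell viability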
Description: SANGER: Inhibition of human HCC2157 cell growth in a cell viability assay.

NB17 = experiment: cells; details: Homo sapiens;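 further: growth inhibition of NB17 cells, read out with a cell viability assay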
Description: SANGER: Inhibition of human NB17 cell growth in a cell viability assay.

NB7 = experiment: cells; details: Homo sapiens;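 further: growth inhibition of NB7 cells, read out with a cell viability assay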
Description: SANGER: Inhibition of human NB7 cell growth in a cell viability assay.

NCI-H1436 = experiment: cells; details: Homo sapiens;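 further: growth suppression of human NCI-H1436 cells, determined with a cell viability readout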
Description: SANGER: Inhibition of human NCI-H1436 cell growth in a cell viability assay.

NCI-H1694 = experiment: cells; details: Homo sapiens;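 further: cell viability assay measuring inhibition of growth in human NCI-H1694 cells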
Description: SANGER: Inhibition of human NCI-H1694 cell growth in a cell viability assay.

NCI-H1963 = experiment: cells; details: Homo sapiens;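 further: cell growth inhibition of the human line, determined with a cell viability assay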
Description: SANGER: Inhibition of human NCI-H1963 cell growth in a cell viability assay.

NCI-H524 = experiment: cells; details: Homo sapiens;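 further: growth inhibition of human NCI-H524 cells, read out through a cell viability assay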
Description: SANGER: Inhibition of human NCI-H524 cell growth in a cell viability assay.

REH = experiment: cells; details: Homo sapiens;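 further: growth inhibition of REH cells determined with a cell viability read-out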
Description: SANGER: Inhibition of human REH cell growth in a cell viability assay.

RL = experiment: cells; details: Homo sapiens
Description: SANGER: Inhibition of human RL cell growth in a cell viability assay.

Raji = experiment: cells; details: Homo sapiens;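 further: cell viability assay measuring inhibition of Raji cell growth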
Description: SANGER: Inhibition of human Raji cell growth in a cell viability assay.

SCC-3 = experiment: cells; details: Homo sapiens;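 further: cell viability assay measuring inhibition of SCC-3 cell growth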
Description: SANGER: Inhibition of human SCC-3 cell growth in a cell viability assay.

ST486 = experiment: SANGER: Inhibition of human ST486 cell growth in a cell viability assay.
A253 cell line = experiment: cells; details: Homo sapiens;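 further: growth inhibition of A253 cells, read out with a cell viability assay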
Description: SANGER: Inhibition of human A253 cell growth in a cell viability assay.

CA46 = experiment: cells; details: Homo sapiens;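 further: growth inhibition of human CA46 cells, read out by a cell viability assay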
Description: SANGER: Inhibition of human CA46 cell growth in a cell viability assay.

U-698-M = experiment: cells; details: Homo sapiens
Description: SANGER: Inhibition of human U-698-M cell growth in a cell viability assay.

MOLT-13 = experiment: cells; details: Homo sapiens;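 further: IC50 for suppression of MOLT-13 cell growth, read out with a cell viability assay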
Description: SANGER: Inhibition of human MOLT-13 cell growth in a cell viability assay.

COLO-792 = experiment: cells; details: Homo sapiens
Description: SANGER: Inhibition of human COLO-792 cell growth in a cell viability assay.

Ca-Ski = experiment: cells; details: Homo sapiens;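 further: cell viability assay measuring inhibition of Ca-Ski cell growth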
Description: SANGER: Inhibition of human Ca-Ski cell growth in a cell viability assay.

Detroit 562 = experiment: cells; details: Homo sapiens;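 further: growth inhibition of human Detroit 562 cells, read out by a cell viability assay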
Description: SANGER: Inhibition of human Detroit562 cell growth in a cell viability assay.

EFM-19 = experiment: cells; details: Homo sapiens;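 further: growth inhibition of human EFM-19 cells, measured in a cell viability assay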
Description: SANGER: Inhibition of human EFM-19 cell growth in a cell viability assay.

EFO-21 = experiment: cells; details: Homo sapiens;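 further: growth inhibition of EFO-21 cells measured with a viability assay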
Description: SANGER: Inhibition of human EFO-21 cell growth in a cell viability assay.

HCC1954 = experiment: cells; details: Homo sapiens;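 further: growth inhibition of human HCC1954 cells, read out with a cell viability assay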
Description: SANGER: Inhibition of human HCC1954 cell growth in a cell viability assay.

HCC70 = experiment: cells; details: Homo sapiens;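 further: cell viability assay measuring how strongly the compound suppresses proliferation of HCC70 cells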
Description: SANGER: Inhibition of human HCC70 cell growth in a cell viability assay.

HSC-2 = experiment: cells; details: Homo sapiens;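 further: growth inhibition of human HSC-2 cells, read out by a cell viability assay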
Description: SANGER: Inhibition of human HSC-2 cell growth in a cell viability assay.

KP-4 = experiment: cells; details: Homo sapiens;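 further: human KP-4 cells, with growth inhibition read out through a cell viability assay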
Description: SANGER: Inhibition of human KP-4 cell growth in a cell viability assay.

KU-19-19 = experiment: cells; details: Homo sapiens
Description: SANGER: Inhibition of human KU-19-19 cell growth in a cell viability assay.

KYSE-180 = experiment: cells; details: Homo sapiens;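 further: growth inhibition of KYSE-180 cells, read out with a cell viability assay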
Description: SANGER: Inhibition of human KYSE-180 cell growth in a cell viability assay.

KYSE-70 cell line = experiment: cells; details: Homo sapiens;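 further: cell viability assay read-out, with IC50 expressing suppression of KYSE-70 cell growth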
Description: SANGER: Inhibition of human KYSE-70 cell growth in a cell viability assay.

ME-180 = experiment: cells; details: Homo sapiens;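 further: cell viability assay measuring growth inhibition of ME-180 cells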
Description: SANGER: Inhibition of human ME-180 cell growth in a cell viability assay.

MEL-HO = experiment: cells; details: Homo sapiens
Description: SANGER: Inhibition of human MEL-HO cell growth in a cell viability assay.

MIA PaCa-2 = experiment: cells; details: Homo sapiens;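 further: growth inhibition of MIA PaCa-2 cells, read out with a cell viability assay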
Description: SANGER: Inhibition of human MIA-PaCa-2 cell growth in a cell viability assay.

NCI-H1703 = experiment: cells; details: Homo sapiens;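 further: growth inhibition of NCI-H1703 cells, read out via a cell viability assay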
Description: SANGER: Inhibition of human NCI-H1703 cell growth in a cell viability assay.

NCI-H2347 = experiment: cells; details: Homo sapiens;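 further: growth inhibition of the cell line, read out with a cell viability assay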
Description: SANGER: Inhibition of human NCI-H2347 cell growth in a cell viability assay.

NCI-H441 = experiment: cells; details: Homo sapiens;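 further: growth inhibition of NCI-H441 cells, read out with a cell viability assay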
Description: SANGER: Inhibition of human NCI-H441 cell growth in a cell viability assay.

NCI-H630 = experiment: cells; details: Homo sapiens;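 further: growth inhibition of NCI-H630 cells, read out with a cell viability assay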
Description: SANGER: Inhibition of human NCI-H630 cell growth in a cell viability assay.

NY = experiment: cells; details: Homo sapiens
Description: SANGER: Inhibition of human NY cell growth in a cell viability assay.

OVCAR-5 = experiment: cells; details: Homo sapiens;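 further: growth inhibition of human OVCAR-5 cells, read out with a cell viability assay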
Description: SANGER: Inhibition of human OVCAR-5 cell growth in a cell viability assay.

PA-1 = experiment: cells; details: Homo sapiens;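 further: IC50 for suppression of PA-1 cell proliferation, determined with a cell viability read-out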
Description: SANGER: Inhibition of human PA-1 cell growth in a cell viability assay.

PANC-08-13 = experiment: cells; details: Homo sapiens
Description: SANGER: Inhibition of human PANC-08-13 cell growth in a cell viability assay.

Panc1005 = experiment: cells; details: Homo sapiens;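 further: growth inhibition of human PANC-10-05 cells, measured by a cell viability assay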
Description: SANGER: Inhibition of human PANC-10-05 cell growth in a cell viability assay.

PC-14 = experiment: cells; details: Homo sapiens;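 further: cell viability assay measuring inhibition of PC-14 cell growth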
Description: SANGER: Inhibition of human PC-14 cell growth in a cell viability assay.

PC-3 = experiment: cells; details: Homo sapiens;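 further: cell viability assay measuring growth inhibition of PC-3 cells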
Description: SANGER: Inhibition of human PC-3 cell growth in a cell viability assay.

S-117 = experiment: cells; details: Homo sapiens
Description: SANGER: Inhibition of human S-117 cell growth in a cell viability assay.

SCC-4 = experiment: cells; details: Homo sapiens;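 further: growth inhibition of human SCC-4 cells, read out as cell viability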
Description: SANGER: Inhibition of human SCC-4 cell growth in a cell viability assay.

SKG-IIIa = experiment: cells; details: Homo sapiens;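 further: cell growth inhibition, read out with a cell viability assay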
Description: SANGER: Inhibition of human SKG-IIIa cell growth in a cell viability assay.

SNU-423 = experiment: cells; details: Homo sapiens
Description: SANGER: Inhibition of human SNU-423 cell growth in a cell viability assay.

SW48 = experiment: cells; details: Homo sapiens;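 further: growth inhibition of SW48 cells, read out with a cell viability assay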
Description: SANGER: Inhibition of human SW48 cell growth in a cell viability assay.

T47D = experiment: cells; details: Homo sapiens;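 further: growth inhibition of human T47D cells, measured with a cell viability assay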
Description: SANGER: Inhibition of human T47D cell growth in a cell viability assay.

A 172 = experiment: cells; details: Homo sapiens;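 further: growth inhibition of A172 cells, measured with a cell viability readout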
Description: SANGER: Inhibition of human A172 cell growth in a cell viability assay.

A2780 = experiment: cells; details: Homo sapiens;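 further: growth inhibition of A2780 cells, read out with a cell viability assay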
Description: SANGER: Inhibition of human A2780 cell growth in a cell viability assay.

A-375 = experiment: cells; details: Homo sapiens;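 further: growth inhibition of A375 cells, read out with a cell viability assay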
Description: SANGER: Inhibition of human A375 cell growth in a cell viability assay.

A673 = experiment: cells; details: Homo sapiens;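 further: growth inhibition of human A673 cells, read out through a cell viability assay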
Description: SANGER: Inhibition of human A673 cell growth in a cell viability assay.

AN3-CA = experiment: cells; details: Homo sapiens;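 further: growth inhibition of human AN3-CA cells measured by a cell viability assay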
Description: SANGER: Inhibition of human AN3-CA cell growth in a cell viability assay.

AU565 = experiment: cells; details: Homo sapiens;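 further: cell viability assay measuring growth inhibition of human AU565 cells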
Description: SANGER: Inhibition of human AU565 cell growth in a cell viability assay.

BHT-101 = experiment: cells; details: Homo sapiens
Description: SANGER: Inhibition of human BHT-101 cell growth in a cell viability assay.

C3A = experiment: cells; details: Homo sapiens;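 further: growth inhibition of C3A human cells, quantified with a cell viability readout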
Description: SANGER: Inhibition of human C3A cell growth in a cell viability assay.

YKG-1 = experiment: cells; details: Homo sapiens;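 further: cell growth inhibition, read out with a viability assay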
Description: SANGER: Inhibition of human YKG-1 cell growth in a cell viability assay.

In the case of CCNc1cc(N[C@H]2CC[C@@H](O)CC2)nc(Nc2ccc3c(ccn3Cc3ccccc3)c2)n1, the IC50 (COR-L279) is reported as > 5.12 µM, the IC50 (DG-75) is reported as > 5.12 µM and the IC50 (GDM-1) is reported as > 5.12 µM. For the same molecule, the IC50 (HCC2157) was > 5.12 µM, the IC50 (NB17) was > 5.12 µM and the IC50 (NB7) was > 5.12 µM. For the same molecule, the IC50 (NCI-H1436) was > 5.12 µM, the IC50 (NCI-H1694) was > 5.12 µM and the IC50 (NCI-H1963) was > 5.12 µM. For the same molecule, the IC50 (NCI-H524) was > 5.12 µM, the IC50 (REH) was > 5.12 µM and the IC50 (RL) was > 5.12 µM. For the same molecule, the IC50 (Raji) was > 5.12 µM, the IC50 (SCC-3) was > 5.12 µM and the IC50 (ST486) was > 5.12 µM. The IC50 (A253 cell line) was > 5.12 µM, the IC50 (CA46) was > 5.12 µM and the IC50 (U-698-M) was > 5.12 µM.
With COc1cc(C)c(Sc2cnc(NC(=O)c3ccc(CNC(C)C(C)(C)C)cc3)s2)cc1C(=O)N1CCN(C(C)=O)CC1 (centres undefined) the IC50 (COR-L279) was > 10.2 µM, the IC50 (DG-75) was > 10.2 µM and the IC50 (GDM-1) was > 10.2 µM. The IC50 (HCC2157) was > 10.2 µM, the IC50 (MOLT-13) was > 10.2 µM and the IC50 (NB17) was 8.92 µM. For the same molecule, the IC50 (NB7) was > 10.2 µM, the IC50 (NCI-H1436) was > 10.2 µM and the IC50 (NCI-H1694) was > 10.2 µM. The IC50 (NCI-H1963) was > 10.2 µM, the IC50 (NCI-H524) was > 10.2 µM and the IC50 (REH) was > 10.2 µM. The IC50 (RL) was > 10.2 µM, the IC50 (Raji) was > 10.2 µM and the IC50 (SCC-3) was > 10.2 µM. For the same molecule, the IC50 (ST486) was > 10.2 µM, the IC50 (A253 cell line) was > 10.2 µM and the IC50 (CA46) was > 10.2 µM. For the same molecule, the IC50 (U-698-M) was > 10.2 µM.
Cc1ccc(NC(=O)c2cccc(C(C)(C)C#N)c2)cc1Nc1ccc2ncn(C)c(=O)c2c1 was tested, and the IC50 (COR-L279) was > 4 µM, the IC50 (DG-75) was > 4 µM and the IC50 (GDM-1) was 0.229 µM. The IC50 (HCC2157) was > 4 µM, the IC50 (MOLT-13) was > 4 µM and the IC50 (NB17) was > 4 µM. The IC50 (NB7) was > 4 µM, the IC50 (NCI-H1436) was > 4 µM and the IC50 (NCI-H1694) was > 4 µM. For the same molecule, the IC50 (NCI-H1963) was > 4 µM, the IC50 (NCI-H524) was > 4 µM and the IC50 (REH) was > 4 µM. The IC50 (RL) was > 4 µM, the IC50 (Raji) was > 4 µM and the IC50 (SCC-3) was > 4 µM. The IC50 (ST486) was 1.39 µM, the IC50 (A253 cell line) was > 4 µM and the IC50 (CA46) was > 4 µM. The IC50 (U-698-M) was > 4 µM.
For NC(=O)c1ncn([C@@H]2O[C@H](COP(=O)(O)O)[C@@H](O)[C@H]2O)c1N, the IC50 (COLO-792) was > 2000 µM, the IC50 (Ca-Ski) was > 2000 µM and the IC50 (Detroit 562) was 1220 µM. For the same molecule, the IC50 (EFM-19) was 343 µM, the IC50 (EFO-21) was > 2000 µM and the IC50 (HCC1954) was > 2000 µM. The IC50 (HCC70) was 1270 µM, the IC50 (HSC-2) was 846 µM and the IC50 (KP-4) was > 2000 µM. The IC50 (KU-19-19) was > 2000 µM, the IC50 (KYSE-180) was 453 µM and the IC50 (KYSE-70 cell line) was > 2000 µM. The IC50 (ME-180) was 416 µM, the IC50 (MEL-HO) was 397 µM and the IC50 (MIA PaCa-2) was > 2000 µM. For the same molecule, the IC50 (NB17) was > 2000 µM, the IC50 (NB7) was 901 µM and the IC50 (NCI-H1703) was > 2000 µM. For the same molecule, the IC50 (NCI-H2347) was > 2000 µM, the IC50 (NCI-H441) was > 2000 µM and the IC50 (NCI-H630) was > 2000 µM. For the same molecule, the IC50 (NY) was 495 µM, the IC50 (OVCAR-5) was > 2000 µM and the IC50 (PA-1) was 856 µM. For the same molecule, the IC50 (PANC-08-13) was 1300 µM, the IC50 (Panc1005) was > 2000 µM and the IC50 (PC-14) was 379 µM. For the same molecule, the IC50 (PC-3) was 349 µM, the IC50 (S-117) was > 2000 µM and the IC50 (SCC-4) was 1230 µM. The IC50 (SKG-IIIa) was > 2000 µM, the IC50 (SNU-423) was 1220 µM and the IC50 (SW48) was 932 µM. The IC50 (T47D) was 413 µM, the IC50 (A 172) was > 2000 µM and the IC50 (A2780) was 1860 µM. The IC50 (A-375) was > 2000 µM, the IC50 (A673) was > 2000 µM and the IC50 (AN3-CA) was > 2000 µM. For the same molecule, the IC50 (AU565) was 357 µM, the IC50 (BHT-101) was > 2000 µM and the IC50 (C3A) was > 2000 µM. The IC50 (YKG-1) was 552 µM.
